Assays:
Type in all cases: cell-based
ATM = target: T1, ATM (Homo sapiens, UniProt Q13315); test: ATM cellular potency assay (pATM Ser1981 in irradiated HT29 cells); settings: 1 h compound, X-ray irradiation, pATM (Ser1981); Table 2; read-out: Assay a) ATM Cell IC50
T1 construct: endogenous in cells; host or cells: HT29 cells (ECACC #85061109)
Experimental: (§1) The following assays were used to measure the effects of the compounds of the present invention: a) ATM cellular potency assay; b) PI3K cellular potency assay; c) mTOR cellular potency assay; d) ATR cellular potency assay. During the description of the assays, generally: • i. […] IC50 values were calculated using a smart fitting model in Genedata.
Most ATM molecules in the cell are rapidly phosphorylated on this site after doses of radiation as low as 0.5 Gy, and binding of a phosphospecific antibody is detectable after the introduction of only a few DNA double-strand breaks in the cell.
The rationale of the pATM assay is to identify inhibitors of ATM in cells. HT29 cells are incubated with test compounds for 1 h prior to X-ray-irradiation. 1 h later the cells are fixed and stained for pATM (Ser1981). The fluorescence is read on the arrayscan imaging platform.
The following morning compounds of Formula (I) in 100% DMSO were added to assay plates by acoustic dispensing. After 1 h incubation at 37° C. and 5% CO2, plates (up to 6 at a time) were irradiated using the X-RAD 320 instrument (PXi) with equivalent to 600 cGy. Plates were returned to the incubator for a further 1 h. Then cells were fixed by adding 20 μl of 3.7% formaldehyde in PBS solution and incubating for 20 minutes at r.t. before being washed with 50μl/well PBS, using a Biotek EL405 plate washer. Then 20 μl of 0.1% Triton X100 in PBS was added and incubated for 20 minutes at r.t., to permeabalise cells. Then the plates were washed once with 50 μl/well PBS, using a Biotek EL405 plate washer.
After 1 h incubation at r.t., the plates were washed three times with 50 μl/well PBS, using a Biotek EL405 plate washer, and plates were sealed and kept in PBS at 4° C. until read. Plates were read using an ArrayScan VTI instrument, using an XF53 filter with 10× objective.

ATR = target: T2, ATR (Homo sapiens, UniProt Q13535); test: ATR cellular potency assay (pChk1 Ser345 in HT29 cells after 4NQO); settings: pChk1 (Ser 345); Table 2; read-out: Assay b) ATR Cell IC50
T2 construct: endogenous in cells; host or cells: HT29 cells (ECACC #85061109)
Experimental: as §1
ATR is a PI3-kinase-related kinase which phosphorylates multiple substrates on serine or threonine residues in response to DNA damage during or replication blocks. Chk1, a downstream protein kinase of ATR, plays a key role in DNA damage checkpoint control. Activation of Chk1 involves phosphorylation of Ser317 and Ser345 (the latter regarded as the preferential target for phosphorylation/activation by ATR).
The following morning compound of Formula (I) in 100% DMSO were added to assay plates by acoustic dispensing. After 1 h incubation at 37° C. and 5% CO2, 40 nl of 3 mM 4NQO in 100% DMSO was added to all wells by acoustic dispensing, except minimum control wells which were left untreated with 4NQO to generate a null response control. Plates were returned to the incubator for a further 1 h. Then cells were fixed by adding 20 μl of 3.7% formaldehyde in PBS solution and incubating for 20 mins at r.t. Then […] of 0.1% Triton X100 in PBS was added and incubated for 10 minutes at r.t., to permeabalise cells. Then the plates were washed once with […] PBS, using a Biotek EL405 plate washer.
After 2 h incubation at r.t., the plates were washed three times with […] PBS, using a Biotek EL405 plate washer, and plates were then sealed with black plate seals until read. Plates were read using an ArrayScan VTI instrument, using an XF53 filter with 10× objective.

PI3Kα = PI3Kα (Homo sapiens, UniProt P42336); test: PI3K cellular potency assay (phospho-Akt T308 in BT474 cells, ELISA); settings: 2 h, phospho-Akt (T308); Table 2; read-out: Assay c) PI3Kα Cell IC50
Experimental: as §1
This assay was used to measure PI3K-α inhibition in cells. PDK1 was identified as the upstream activation loop kinase of protein kinase B (Akt1), which is essential for the activation of PKB. Activation of the lipid kinase phosphoinositide 3 kinase (PI3K) is critical for the activation of PKB by PDK1.
Following ligand stimulation of receptor tyrosine kinases, PI3K is activated, which converts PIP2 to PIP3, which is bound by the PH domain of PDK1 resulting in recruitment of PDK1 to the plasma membrane where it phosphorylates AKT at Thr308 in the activation loop.
The aim of this cell-based mode of action assay is to identify compounds that inhibit PDK activity or recruitment of PDK1 to membrane by inhibiting PI3K activity. Phosphorylation of phospho-Akt (T308) in BT474c cells following treatment with compounds for 2 h is a direct measure of PDK1 and indirect measure of PI3K activity.
The following morning compounds in 100% DMSO were added to assay plates by acoustic dispensing.
Plates were incubated over night at 4° C. The next day the plates were washed with PBS buffer containing 0.05% Tween 20 and further incubated with a mouse monoclonal anti-phospho AKT T308 for 2 h. Plates were washed again as above before addition of a horse anti-mouse-HRP conjugated secondary antibody. […] The developed fluorescent product was stopped after 60 minutes by addition of Stop solution to the wells.

T2 sequence (Q13535 whole entry): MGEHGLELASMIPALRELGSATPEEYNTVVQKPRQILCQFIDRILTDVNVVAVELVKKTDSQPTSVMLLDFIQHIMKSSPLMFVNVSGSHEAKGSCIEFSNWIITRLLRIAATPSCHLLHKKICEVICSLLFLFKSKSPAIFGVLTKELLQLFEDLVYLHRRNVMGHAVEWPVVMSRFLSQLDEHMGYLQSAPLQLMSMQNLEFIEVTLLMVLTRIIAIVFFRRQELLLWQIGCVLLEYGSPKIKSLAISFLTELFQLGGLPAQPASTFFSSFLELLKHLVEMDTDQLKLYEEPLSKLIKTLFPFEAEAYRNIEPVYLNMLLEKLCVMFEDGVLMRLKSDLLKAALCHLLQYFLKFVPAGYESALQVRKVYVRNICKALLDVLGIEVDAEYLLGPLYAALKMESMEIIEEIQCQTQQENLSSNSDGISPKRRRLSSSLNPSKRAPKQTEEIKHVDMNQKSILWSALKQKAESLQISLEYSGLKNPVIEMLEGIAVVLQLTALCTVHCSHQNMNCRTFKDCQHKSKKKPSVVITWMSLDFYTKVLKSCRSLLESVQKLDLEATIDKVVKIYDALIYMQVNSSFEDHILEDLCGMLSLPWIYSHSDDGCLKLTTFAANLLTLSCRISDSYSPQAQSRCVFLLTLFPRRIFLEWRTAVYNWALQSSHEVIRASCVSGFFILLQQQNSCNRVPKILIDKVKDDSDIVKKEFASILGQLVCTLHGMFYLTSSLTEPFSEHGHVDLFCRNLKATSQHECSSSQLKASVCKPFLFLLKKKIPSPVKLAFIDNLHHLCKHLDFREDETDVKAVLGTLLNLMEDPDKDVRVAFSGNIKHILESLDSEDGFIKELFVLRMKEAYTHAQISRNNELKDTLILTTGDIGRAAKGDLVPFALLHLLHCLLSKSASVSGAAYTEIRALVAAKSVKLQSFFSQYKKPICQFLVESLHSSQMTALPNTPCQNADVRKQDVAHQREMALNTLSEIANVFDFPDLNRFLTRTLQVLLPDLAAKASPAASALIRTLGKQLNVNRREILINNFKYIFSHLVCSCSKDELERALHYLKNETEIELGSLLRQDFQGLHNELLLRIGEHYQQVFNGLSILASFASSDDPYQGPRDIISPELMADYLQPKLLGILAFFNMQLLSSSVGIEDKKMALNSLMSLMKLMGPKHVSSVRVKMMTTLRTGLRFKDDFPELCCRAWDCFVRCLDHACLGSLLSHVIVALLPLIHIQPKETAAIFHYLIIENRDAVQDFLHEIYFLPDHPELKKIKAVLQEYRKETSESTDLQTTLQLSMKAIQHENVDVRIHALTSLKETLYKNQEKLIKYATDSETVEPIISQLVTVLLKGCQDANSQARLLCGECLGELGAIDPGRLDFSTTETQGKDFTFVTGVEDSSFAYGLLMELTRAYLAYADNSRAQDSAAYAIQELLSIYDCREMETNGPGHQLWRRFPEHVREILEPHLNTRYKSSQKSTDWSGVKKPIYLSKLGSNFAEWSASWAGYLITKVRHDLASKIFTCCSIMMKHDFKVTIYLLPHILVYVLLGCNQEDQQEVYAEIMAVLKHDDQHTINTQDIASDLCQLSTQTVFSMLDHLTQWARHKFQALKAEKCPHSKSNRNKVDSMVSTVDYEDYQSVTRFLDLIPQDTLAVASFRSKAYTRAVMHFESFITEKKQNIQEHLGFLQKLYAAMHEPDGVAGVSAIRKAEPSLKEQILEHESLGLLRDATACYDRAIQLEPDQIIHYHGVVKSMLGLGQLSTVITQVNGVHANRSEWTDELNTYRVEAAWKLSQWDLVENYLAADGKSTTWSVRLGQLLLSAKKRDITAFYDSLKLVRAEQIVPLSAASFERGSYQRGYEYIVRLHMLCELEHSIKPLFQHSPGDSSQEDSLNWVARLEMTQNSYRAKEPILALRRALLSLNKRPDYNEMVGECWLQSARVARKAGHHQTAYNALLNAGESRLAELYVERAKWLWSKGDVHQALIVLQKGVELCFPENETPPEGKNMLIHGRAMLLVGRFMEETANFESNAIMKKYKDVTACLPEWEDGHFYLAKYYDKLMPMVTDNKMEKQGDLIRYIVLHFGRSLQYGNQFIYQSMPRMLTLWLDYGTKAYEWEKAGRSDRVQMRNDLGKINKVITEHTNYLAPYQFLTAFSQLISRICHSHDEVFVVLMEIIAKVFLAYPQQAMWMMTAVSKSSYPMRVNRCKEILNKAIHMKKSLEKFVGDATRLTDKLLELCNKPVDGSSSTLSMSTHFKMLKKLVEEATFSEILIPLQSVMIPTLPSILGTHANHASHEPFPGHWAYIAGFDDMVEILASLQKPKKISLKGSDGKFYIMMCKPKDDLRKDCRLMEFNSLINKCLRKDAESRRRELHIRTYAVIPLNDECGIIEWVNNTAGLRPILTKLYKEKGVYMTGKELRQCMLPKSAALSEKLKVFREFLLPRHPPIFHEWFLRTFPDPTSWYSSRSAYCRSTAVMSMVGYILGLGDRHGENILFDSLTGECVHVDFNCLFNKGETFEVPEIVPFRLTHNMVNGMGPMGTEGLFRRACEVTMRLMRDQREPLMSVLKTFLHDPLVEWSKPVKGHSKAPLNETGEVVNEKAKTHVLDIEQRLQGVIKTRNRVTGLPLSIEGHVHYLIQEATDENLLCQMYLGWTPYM
T2 sequence (Q8WXE1 whole entry partner): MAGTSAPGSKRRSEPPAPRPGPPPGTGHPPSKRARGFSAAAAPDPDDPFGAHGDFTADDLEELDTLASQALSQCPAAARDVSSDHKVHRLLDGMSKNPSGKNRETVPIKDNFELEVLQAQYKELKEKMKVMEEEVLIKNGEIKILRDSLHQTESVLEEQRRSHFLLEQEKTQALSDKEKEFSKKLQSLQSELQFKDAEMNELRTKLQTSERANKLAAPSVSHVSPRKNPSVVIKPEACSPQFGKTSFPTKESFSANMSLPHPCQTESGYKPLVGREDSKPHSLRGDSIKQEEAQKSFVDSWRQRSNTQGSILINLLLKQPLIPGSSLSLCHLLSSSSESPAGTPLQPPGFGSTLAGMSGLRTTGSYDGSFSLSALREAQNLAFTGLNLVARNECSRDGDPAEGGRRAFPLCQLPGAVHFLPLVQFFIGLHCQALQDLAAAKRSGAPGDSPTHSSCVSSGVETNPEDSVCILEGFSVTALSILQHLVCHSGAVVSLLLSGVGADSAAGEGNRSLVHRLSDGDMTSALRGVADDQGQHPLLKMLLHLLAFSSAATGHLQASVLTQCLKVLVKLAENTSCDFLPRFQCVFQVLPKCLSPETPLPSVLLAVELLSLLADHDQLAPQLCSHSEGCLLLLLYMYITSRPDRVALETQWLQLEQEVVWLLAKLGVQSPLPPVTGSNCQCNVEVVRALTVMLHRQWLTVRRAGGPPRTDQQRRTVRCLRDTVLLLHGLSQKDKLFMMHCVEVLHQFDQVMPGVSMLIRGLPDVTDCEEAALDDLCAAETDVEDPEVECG

Structure (SMILES) | IC50 (ATM) | IC50 (ATR) | IC50 (PI3Kα)
CC(C)n1c(=O)n(C)c2cnc3ccc(-c4ccc(N5CC[C@@H](N(C)C)C5)nc4)cc3c21 [Example 1, 8-[6-[(3R)-3-(Dimethylamino)pyrrolidin-1-yl]-3-pyridyl]-1-isopropyl-3-methyl-imidazo[4,5-c]quinolin-2-one] | – | – | 470 nM
CC(C)n1c(=O)n(C)c2cnc3cc(F)c(-c4ccc(N5CCC(N(C)C)CC5)nc4)cc3c21 [Example 3, 8-[6-[4-(dimethylamino)-1-piperidyl]-3-pyridyl]-7-fluoro-1-isopropyl-3-methyl-imidazo[4,5-c]quinolin-2-one] | – | > 30000 nM | 19300 nM
CC(C)n1c(=O)n(C)c2cnc3ccc(-c4ccc(N5CC(N(C)C)C5)nc4)cc3c21 [Example 4, 8-[6-[3-(dimethylamino)azetidin-1-yl]-3-pyridyl]-1-isopropyl-3-methyl-imidazo[4,5-c]quinolin-2-one] | – | – | 243 nM
CO[C@H]1CC[C@H](n2c(=O)n(C)c3cnc4ccc(-c5ccc(N6CC[C@@H](N(C)C)C6)nc5)cc4c32)CC1 [Example 12] | 0.434 nM | 223 nM | –
CN(C)[C@@H]1CCN(c2ccc(-c3cc4c(cc3F)ncc3c4n([C@H]4CCCOC4)c(=O)n3C)cn2)C1 [Example 15] | 1.46 nM | > 30000 nM | –
CN(C)[C@H]1CCN(c2ccc(-c3ccc4ncc5c(c4c3)n([C@@H]3CCCOC3)c(=O)n5C)cn2)C1 [Example 16] | 18.6 nM | > 22300 nM | –
CN(C)[C@H]1CCN(c2ccc(-c3ccc4ncc5c(c4c3)n([C@H]3CCCOC3)c(=O)n5C)cn2)C1 [Example 17] | 13.7 nM | > 30000 nM | –
CO[C@H]1C[C@@H](n2c(=O)n(C)c3cnc4ccc(-c5ccc(N6CC[C@H](N(C)C)C6)nc5)cc4c32)C1 [Example 18] | 12.7 nM | 17500 nM | –
CN(C)[C@H]1CCN(c2ccc(-c3cc4c(cc3F)ncc3c4n([C@@H]4CCCOC4)c(=O)n3C)cn2)C1 [Example 19] | 63.4 nM | > 30000 nM | –
CO[C@H]1C[C@@H](n2c(=O)n(C)c3cnc4cc(F)c(-c5ccc(N6CC[C@H](N(C)C)C6)nc5)cc4c32)C1 [Example 21] | 25.8 nM | > 30000 nM | –
CN(C)C1CN(c2ccc(-c3ccc4ncc5c(c4c3)n([C@H]3CCCOC3)c(=O)n5C)cn2)C1 [Example 24, 8-[6-[3-(dimethylamino)azetidin-1-yl]-3-pyridyl]-3-methyl-1-[(3S)-tetrahydropyran-3-yl]imidazo[4,5-c]quinolin-2-one] | 16.6 nM | 9230 nM | –

Results, then the compound that gave them:

IC50 (ATM) | IC50 (ATR) | IC50 (PI3Kα) | Structure (SMILES)
0.332 nM | > 25700 nM | 1090 nM | CO[C@H]1CC[C@H](n2c(=O)n(C)c3cnc4ccc(-c5ccc(N6CCC(N(C)C)CC6)nc5)cc4c32)C1 (single isomer, unassigned) [Example 33, 8-[6-[4-(dimethylamino)-1-piperidyl]-3-pyridyl]-1-[trans-3-methoxycyclopentyl]-3-methyl-imidazo[4,5-c]quinolin-2-one]
6.61 nM | 2520 nM | – | CO[C@H]1CC[C@H](n2c(=O)n(C)c3cnc4ccc(-c5ccc(N6CC(N(C)C)C6)nc5)cc4c32)CC1 [Example 25, 8-[6-[3-(dimethylamino)azetidin-1-yl]-3-pyridyl]-1-(trans-4-methoxycyclohexyl)-3-methyl-imidazo[4,5-c]quinolin-2-one]
9.29 nM | > 20100 nM | – | CN(C)C1CN(c2ccc(-c3ccc4ncc5c(c4c3)n(C3CCC3)c(=O)n5C)cn2)C1 [Example 26, 1-cyclobutyl-8-[6-[3-(dimethylamino)azetidin-1-yl]-3-pyridyl]-3-methyl-imidazo[4,5-c]quinolin-2-one]
5.9 nM | 5950 nM | – | CN(C)C1CN(c2ccc(-c3ccc4ncc5c(c4c3)n([C@@H]3CCCOC3)c(=O)n5C)cn2)C1 [Example 27, 8-[6-[3-(dimethylamino)azetidin-1-yl]-3-pyridyl]-3-methyl-1-[(3R)-tetrahydropyran-3-yl]imidazo[4,5-c]quinolin-2-one]
19.5 nM | 18800 nM | – | CN(C)C1CN(c2ccc(-c3ccc4ncc5c(c4c3)n(C3CCOCC3)c(=O)n5C)cn2)C1 [Example 28, 8-[6-[3-(dimethylamino)azetidin-1-yl]-3-pyridyl]-3-methyl-1-tetrahydropyran-4-yl-imidazo[4,5-c]quinolin-2-one]
0.911 nM | > 30000 nM | – | CN(C)C1CCN(c2ccc(-c3ccc4ncc5c(c4c3)n(C3CCC3)c(=O)n5C)cn2)CC1 [Example 37, 1-cyclobutyl-8-[6-[4-(dimethylamino)-1-piperidyl]-3-pyridyl]-3-methyl-imidazo[4,5-c]quinolin-2-one]
3.91 nM | > 30000 nM | – | CN(C)C1CCN(c2ccc(-c3ccc4ncc5c(c4c3)n(C3COC3)c(=O)n5C)cn2)CC1 [Example 38, 8-[6-[4-(dimethylamino)-1-piperidyl]-3-pyridyl]-3-methyl-1-(oxetan-3-yl)imidazo[4,5-c]quinolin-2-one]
2.02 nM | > 30000 nM | – | CN(C)C1CCN(c2ccc(-c3cc4c(cc3F)ncc3c4n([C@H]4CCCOC4)c(=O)n3C)cn2)CC1 [Example 41, 8-[6-[4-(dimethylamino)-1-piperidyl]-3-pyridyl]-7-fluoro-3-methyl-1-[(3S)-tetrahydropyran-3-yl]imidazo[4,5-c]quinolin-2-one]
72 nM | > 30000 nM | – | CO[C@H]1C[C@@H](n2c(=O)n(C)c3cnc4cc(F)c(-c5ccc(N6CCC[C@@H](N(C)C)C6)nc5)cc4c32)C1 [Example 43, 8-[6-[(3R)-3-(dimethylamino)-1-piperidyl]-3-pyridyl]-7-fluoro-1-(cis-3-methoxycyclobutyl)-3-methyl-imidazo[4,5-c]quinolin-2-one]
2.25 nM | > 21800 nM | – | CNC1CCN(c2ccc(-c3ccc4ncc5c(c4c3)n([C@@H]3CCCOC3)c(=O)n5C)cn2)CC1 [Example 58, 3-methyl-8-[6-[4-(methylamino)-1-piperidyl]-3-pyridyl]-1-[(3R)-tetrahydropyran-3-yl]imidazo[4,5-c]quinolin-2-one]
1.38 nM | > 30000 nM | – | CNC1CCN(c2ccc(-c3ccc4ncc5c(c4c3)n([C@H]3CCCOC3)c(=O)n5C)cn2)CC1 [Example 59, 3-methyl-8-[6-[4-(methylamino)-1-piperidyl]-3-pyridyl]-1-[(3S)-tetrahydropyran-3-yl]imidazo[4,5-c]quinolin-2-one]
0.753 nM | > 25500 nM | – | CNC1CCN(c2ccc(-c3ccc4ncc5c(c4c3)n(C3CCOCC3)c(=O)n5C)cn2)CC1 [Example 61, 3-methyl-8-[6-[4-(methylamino)-1-piperidyl]-3-pyridyl]-1-tetrahydropyran-4-yl-imidazo[4,5-c]quinolin-2-one]

— patent publication US20180280377A1, “Imidazo[4,5-c]quinolin-2-one Compounds and Their Use in Treating Cancer” (ASTRAZENECA AB, priority 2015, published 2018)
